# Experimental data: PubChem BioAssay AID2060617 (Molecular Pharmacology Branch, DTP, NCI, 2025)
# Test system: 485368-065-R4-J2-PDC spheroids with HUVEC/MSC, viability
# Assay: Anticancer human tumor 485368-065-R4-J2-PDC patient-derived pancreatic carcinoma cell line growth inhibition [CLK]
# Details: for IC50: curve of first compound; for viability, T/C: stronger effect = lower value
# In short: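 Patient-derived tumor cells grown as complex spheroids with HUVEC endothelial cells and mesenchymal stem cells, treated with drug combinations. Concentrations descend in half-log steps from near clinical Cmax, or from 10 microM if Cmax unknown.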
# [1] = second compound 0.0316 µM, first compound 0.0316 µM
# [2] = second compound 0.0316 µM, first compound 0.1 µM
# [3] = second compound 0.1 µM, first compound 0.0316 µM
# [4] = second compound 0.1 µM, first compound 0.1 µM
# [5] = second compound 0.316 µM, first compound 0.0316 µM
# [6] = second compound 0.316 µM, first compound 0.1 µM
# [7] = second compound 1 µM, first compound 0.0316 µM
# [8] = second compound 1 µM, first compound 0.1 µM
# [9] = second compound 3.16 µM, first compound 0.0316 µM
# [10] = second compound 3.16 µM, first compound 0.1 µM
# [11] = second compound 10 µM, first compound 0.0316 µM
# [12] = second compound 10 µM, first compound 0.1 µM
# 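Further: spheroids exposed to compounds for seven days.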
# 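Wherever viability, T/C is given: 100% = DMSO vehicle control wells.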
smiles,measurement,setting,value
Cn1ncnc1[C@H]1c2n[nH]c(=O)c3cc(F)cc(c23)N[C@@H]1c1ccc(F)cc1 + CNC(=O)c1ccc(Nc2nc(OC3CCCC3)c3c(-c4ccc5nc(C)oc5c4)c[nH]c3n2)c(OC)c1,IC50,second compound 0.0316 µM,> 0.1 µM
same,IC50,second compound 0.1 µM,> 0.1 µM
same,IC50,second compound 0.316 µM,> 0.1 µM
same,IC50,second compound 1 µM,> 0.1 µM
same,IC50,second compound 3.16 µM,> 0.1 µM
same,IC50,second compound 10 µM,> 0.1 µM
same,"viability, T/C","second compound 0.0316 µM, first compound 0.000316 µM",91.9%
same,"viability, T/C","second compound 0.0316 µM, first compound 0.001 µM",94.1%
same,"viability, T/C","second compound 0.0316 µM, first compound 0.00316 µM",97.4%
same,"viability, T/C","second compound 0.0316 µM, first compound 0.01 µM",105%
same,"viability, T/C",[1],98%
same,"viability, T/C",[2],90.8%
same,"viability, T/C","second compound 0.1 µM, first compound 0.000316 µM",89.3%
same,"viability, T/C","second compound 0.1 µM, first compound 0.001 µM",97.8%
same,"viability, T/C","second compound 0.1 µM, first compound 0.00316 µM",99%
same,"viability, T/C","second compound 0.1 µM, first compound 0.01 µM",105%
same,"viability, T/C",[3],89.7%
same,"viability, T/C",[4],82.4%
same,"viability, T/C","second compound 0.316 µM, first compound 0.000316 µM",79.6%
same,"viability, T/C","second compound 0.316 µM, first compound 0.001 µM",79.5%
same,"viability, T/C","second compound 0.316 µM, first compound 0.00316 µM",81.2%
same,"viability, T/C","second compound 0.316 µM, first compound 0.01 µM",77.9%
same,"viability, T/C",[5],89%
same,"viability, T/C",[6],73%
same,"viability, T/C","second compound 1 µM, first compound 0.000316 µM",74.7%
same,"viability, T/C","second compound 1 µM, first compound 0.001 µM",75.8%
same,"viability, T/C","second compound 1 µM, first compound 0.00316 µM",79%
same,"viability, T/C","second compound 1 µM, first compound 0.01 µM",66.6%
same,"viability, T/C",[7],77%
same,"viability, T/C",[8],63.3%
same,"viability, T/C","second compound 3.16 µM, first compound 0.000316 µM",78.4%
same,"viability, T/C","second compound 3.16 µM, first compound 0.001 µM",74.3%
same,"viability, T/C","second compound 3.16 µM, first compound 0.00316 µM",69.8%
same,"viability, T/C","second compound 3.16 µM, first compound 0.01 µM",67.4%
same,"viability, T/C",[9],59.1%
same,"viability, T/C",[10],66%
same,"viability, T/C","second compound 10 µM, first compound 0.000316 µM",70%
same,"viability, T/C","second compound 10 µM, first compound 0.001 µM",69.7%
same,"viability, T/C","second compound 10 µM, first compound 0.00316 µM",60.8%
same,"viability, T/C","second compound 10 µM, first compound 0.01 µM",62.9%
same,"viability, T/C",[11],64.2%
same,"viability, T/C",[12],57.9%
COc1ccc([C@@H](O)c2cc(-c3ncnc4cc(N5CCOCC5)ccc34)c(F)cc2Cl)nn1 + CNC(=O)c1ccc(Nc2nc(OC3CCCC3)c3c(-c4ccc5nc(C)oc5c4)c[nH]c3n2)c(OC)c1,IC50,second compound 0.0316 µM,> 10 µM
same,IC50,second compound 0.1 µM,> 10 µM
same,IC50,second compound 0.316 µM,> 10 µM
same,IC50,second compound 1 µM,> 10 µM
same,IC50,second compound 3.16 µM,> 10 µM
same,IC50,second compound 10 µM,> 10 µM
same,"viability, T/C",[1],84.1%
same,"viability, T/C",[2],96.7%
same,"viability, T/C","second compound 0.0316 µM, first compound 0.316 µM",96.1%
same,"viability, T/C","second compound 0.0316 µM, first compound 1 µM",103%
same,"viability, T/C","second compound 0.0316 µM, first compound 3.16 µM",122%
same,"viability, T/C","second compound 0.0316 µM, first compound 10 µM",83.7%
same,"viability, T/C",[3],86.5%
same,"viability, T/C",[4],99.7%
same,"viability, T/C","second compound 0.1 µM, first compound 0.316 µM",95.1%
same,"viability, T/C","second compound 0.1 µM, first compound 1 µM",103%
same,"viability, T/C","second compound 0.1 µM, first compound 3.16 µM",96.6%
same,"viability, T/C","second compound 0.1 µM, first compound 10 µM",87.6%
same,"viability, T/C",[5],82.2%
same,"viability, T/C",[6],77.8%
same,"viability, T/C","second compound 0.316 µM, first compound 0.316 µM",86.6%
same,"viability, T/C","second compound 0.316 µM, first compound 1 µM",73.6%
same,"viability, T/C","second compound 0.316 µM, first compound 3.16 µM",81.5%
same,"viability, T/C","second compound 0.316 µM, first compound 10 µM",66.5%
same,"viability, T/C",[7],69.8%
same,"viability, T/C",[8],70.9%
same,"viability, T/C","second compound 1 µM, first compound 0.316 µM",72.1%
same,"viability, T/C","second compound 1 µM, first compound 1 µM",67.6%
same,"viability, T/C","second compound 1 µM, first compound 3.16 µM",65.5%
same,"viability, T/C","second compound 1 µM, first compound 10 µM",59.2%
same,"viability, T/C",[9],68.3%
same,"viability, T/C",[10],62.7%
same,"viability, T/C","second compound 3.16 µM, first compound 0.316 µM",68.8%
same,"viability, T/C","second compound 3.16 µM, first compound 1 µM",57%
same,"viability, T/C","second compound 3.16 µM, first compound 3.16 µM",54.9%
same,"viability, T/C","second compound 3.16 µM, first compound 10 µM",51.4%
same,"viability, T/C",[11],63.7%
same,"viability, T/C",[12],70.4%
same,"viability, T/C","second compound 10 µM, first compound 0.316 µM",65.4%
same,"viability, T/C","second compound 10 µM, first compound 1 µM",57.5%
same,"viability, T/C","second compound 10 µM, first compound 3.16 µM",54.8%
same,"viability, T/C","second compound 10 µM, first compound 10 µM",50.1%
